Laboratory results taken from patent US20220264878A1, “HERBICIDAL COMPOSITION CONTAINING R-TYPE PYRIDYLOXY CARBOXYLIC ACID DERIVATIVE AND USE THEREOF” (Qingdao Kingagroot Chemical Compound Co., Ltd., priority 2019, published 2022).

What was measured:
Assay type in all cases: in vivo
[1] = tested on: Echinochloa crusgalli var. zelayensis; assay: Soil sealing treatment, pot culture, fresh weight inhibition (Tables 49, 50)
Protocol: (§1) A method for investigating absolute number was employed, wherein whole seedlings of survival weeds were cut off with a blade along the soil surface, and the fresh weight of the weeds was weighed with an analytical balance. For dead weeds, the fresh weight thereof was zero.
(§2) Theoretical fresh weight inhibition rate of a combination of two active ingredients in each group was calculated by the Gowing method (E0=X+Y−X*Y/100), and then compared with an actually measured inhibition rate (E), thereby effect of the combination (hereafter referred to as combined effect) on weeds was evaluated: the value of E-E0, which was greater than 10%, corresponded to a synergistic effect, the value of E-E0, which was less than −10%, corresponded to an antagonistic effect, and the value of E-E0, which was from −10% to 10%, corresponded to an additional effect. […] Wherein, in the formula, X represented the fresh weight inhibition rate of the active ingredient A in a dosage of P, and Y represented the fresh weight inhibition rate of the active ingredient B in a dosage of Q.
(§3) Echinochloa crusgalli var zelayensis were collected in Huai'an of Jiangsu Province; Echinochloa caudate were collected in Pingluo of Ningxia Province; Echinochloa oryzoides were collected in Qiqiha'er of Heilongjiang Province.
(§4) The culture was carried out in a controllable sunlight greenhouse at 20 to 30° C., in natural light, and relative humidity of 57% to 72%. […] The test soil was placed quantitatively to ¾ of the pots and then watered from the bottom of the pots to completely wet the soil to saturation. The pretreated test weed seeds were uniformly sowed on the surface, then covered with 0.5-2 cm soil according to the seed size, and ready-for use 24 hours after sowing.
(§5) The technical materials were all dissolved in acetone, and diluted with an aqueous solution containing 0.1% emulsifier T-80. The dilution is performed as required.
(§6) A ratio of A to the active ingredient B and amounts thereof in each group depends on the characteristics and toxicity of the two agents, as well as the main application purpose of a corresponding formulation. Based on the pre-tests in this study, the dosage of A and the active ingredient B applied alone and in combination were shown in the tables. Water containing the solvent and emulsifier same with the above groups but free of the agents was used as a blank control.
(§7) 3 pots with 30 weed seeds per pot were treated in one treatment with 4 replications per treatment.
(§8) The pots which were sowed and mulched were evenly placed on a platform with an area of 0.5 m^2, and a solution of agents was sprayed on soil surface thereof by the 3WP-2000-type walking spray tower at a dosage of […] and at a spray pressure of 0.3 MPa. After all the solution was sprayed, the valve was closed. After 30 seconds, the door of the spray tower was opened, and the nutritional bowl was taken out. Then the valve was opened, and the spray tube was cleaned by spraying 50 ml of water.
(§9) This section was same as the section 4) in the post-emergence treatment by performing foliage spray, and was not repeated herein.

Echinochloa caudate = assay: Soil sealing treatment, pot culture, fresh weight inhibition (Tables 99, 100)
Protocol: as §1, §2, §3, §4, §5, §6, §7, §8, §9

Echinochloa oryzoides = assay: Soil sealing treatment, pot culture, fresh weight inhibition (Tables 149, 150)
Protocol: as §1, §2, §3, §4, §5, §6, §7, §8, §9

Ammannia arenaria = assay: Post-emergence foliage spray, pot culture, fresh weight inhibition (Tables 1-48, 51-98, 101-148; 24 days); conditions: Table 103
Method in brief: (§10)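 Greenhouse pot plants (20–30 °C, natural light, 57–72% RH) were sprayed once on foliage at 450 kg/ha and 0.3 MPa, at the 5–6-leaf (grass) or 6–7-leaf (broadleaf) stage. Compounds were in acetone diluted with 0.1% Tween-80 water. Surviving shoots were weighed at 24 days; dead plants counted as zero.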

Ludwigia prostrate = assay: as above
Method in brief: as §10

Eclipta prostrate = assay: as above; conditions: 24 days
Method in brief: as §10

SMILES: C#CCOc1cc(-n2nc(C(C)(C)C)oc2=O)c(Cl)cc1Cl [oxadiargyl]
- Control effect (%) of B applied alone in corresponding dose ([1]; oxadiargyl 7.5 g a.i./ha): 1.6%
- Control effect (%) of B applied alone in corresponding dose ([1]; oxadiargyl 15 g a.i./ha): 10.4%
- Control effect (%) of B applied alone in corresponding dose ([1]; oxadiargyl 30 g a.i./ha): 38.8%
- Control effect (%) of B applied alone in corresponding dose ([1]; oxadiargyl 60 g a.i./ha): 63.5%
- Control effect (%) of B applied alone in corresponding dose (Echinochloa caudate; Table 100, 7.5 g a.i./ha): 1.7%
- Control effect (%) of B applied alone in corresponding dose (Echinochloa caudate; Table 100, 15 g a.i./ha): 10.8%
- Control effect (%) of B applied alone in corresponding dose (Echinochloa caudate; Table 100, 30 g a.i./ha): 37.2%
- Control effect (%) of B applied alone in corresponding dose (Echinochloa caudate; Table 100, 60 g a.i./ha): 62.5%
- Control effect (%) of B applied alone in corresponding dose (Echinochloa oryzoides; B 7.5 g a.i./ha): 2.6%
- Control effect (%) of B applied alone in corresponding dose (Echinochloa oryzoides; B 15 g a.i./ha): 12.7%
- Control effect (%) of B applied alone in corresponding dose (Echinochloa oryzoides; B 30 g a.i./ha): 41.6%
- Control effect (%) of B applied alone in corresponding dose (Echinochloa oryzoides; B 60 g a.i./ha): 63.3%

SMILES: CC(C)Oc1cc(-n2nc(C(C)(C)C)oc2=O)c(Cl)cc1Cl [oxadiazon]
- Control effect (%) of B applied alone in corresponding dose ([1]; oxadiazon 37.5 g a.i./ha): 4.2%
- Control effect (%) of B applied alone in corresponding dose ([1]; oxadiazon 75 g a.i./ha): 25.4%
- Control effect (%) of B applied alone in corresponding dose ([1]; oxadiazon 150 g a.i./ha): 41.5%
- Control effect (%) of B applied alone in corresponding dose ([1]; oxadiazon 300 g a.i./ha): 64.2%
- Control effect (%) of B applied alone in corresponding dose (Echinochloa caudate; Table 99, 37.5 g a.i./ha): 6.0%
- Control effect (%) of B applied alone in corresponding dose (Echinochloa caudate; Table 99, 75 g a.i./ha): 22.1%
- Control effect (%) of B applied alone in corresponding dose (Echinochloa caudate; Table 99, 150 g a.i./ha): 39.5%
- Control effect (%) of B applied alone in corresponding dose (Echinochloa caudate; Table 99, 300 g a.i./ha): 63.0%
- Control effect (%) of B applied alone in corresponding dose (Echinochloa oryzoides; B 37.5 g a.i./ha): 5.1%
- Control effect (%) of B applied alone in corresponding dose (Echinochloa oryzoides; B 75 g a.i./ha): 10.3%
- Control effect (%) of B applied alone in corresponding dose (Echinochloa oryzoides; B 150 g a.i./ha): 39.7%
- Control effect (%) of B applied alone in corresponding dose (Echinochloa oryzoides; B 300 g a.i./ha): 50.8%

SMILES: CCOC(=O)c1cnn(C)c1S(=O)(=O)NC(=O)Nc1nc(OC)cc(OC)n1 [pyrazosulfuron-ethyl]
- Control effect (%) of B applied alone in corresponding dose (Ammannia arenaria; 1.875 g a.i./ha): 16.3%
- Control effect (%) of B applied alone in corresponding dose (Ammannia arenaria; 3.75 g a.i./ha): 26.1%
- Control effect (%) of B applied alone in corresponding dose (Ammannia arenaria; 7.5 g a.i./ha): 52.8%
- Control effect (%) of B applied alone in corresponding dose (Ammannia arenaria; 15 g a.i./ha): 77.2%
- Control effect (%) of B applied alone in corresponding dose (Ludwigia prostrate; pyrazosulfuron-ethyl 1.875 g a.i./ha): 7.6%
- Control effect (%) of B applied alone in corresponding dose (Ludwigia prostrate; pyrazosulfuron-ethyl 3.75 g a.i./ha): 13.0%
- Control effect (%) of B applied alone in corresponding dose (Ludwigia prostrate; pyrazosulfuron-ethyl 7.5 g a.i./ha): 52.2%
- Control effect (%) of B applied alone in corresponding dose (Ludwigia prostrate; pyrazosulfuron-ethyl 15 g a.i./ha): 75.3%
- Control effect (%) of B applied alone in corresponding dose (Eclipta prostrate; B 1.875 g a.i/ha): 9.5%
- Control effect (%) of B applied alone in corresponding dose (Eclipta prostrate; B 3.75 g a.i/ha): 19.9%
- Control effect (%) of B applied alone in corresponding dose (Eclipta prostrate; B 7.5 g a.i/ha): 51.0%
- Control effect (%) of B applied alone in corresponding dose (Eclipta prostrate; B 15 g a.i/ha): 76.1%
